Laboratory results as given in PubChem BioAssay AID2060903 (Molecular Pharmacology Branch, DTP, NCI, 2025).

Tested on: 377384-186-R-J1-PDC complex spheroid viability
Experiment: Anticancer human tumor 377384-186-R-J1-PDC patient-derived pancreatic carcinoma cell line growth inhibition [RAS]
Conditions: for IC50: curve of first compound; for viability, T/C: stronger effect = lower value
Method in brief: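 Multi-cell-type spheroids: tumor cells plus HUVEC endothelial cells and mesenchymal stem cells. RAS-pathway inhibitors were combined with targeted agents, each dosed in half-log steps down from clinical Cmax, or from 10 microM when Cmax was unknown.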
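Further: spheroids exposed to compounds for seven days before readout.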

SMILES: CCN1CCN(Cc2ccc(Nc3ncc(F)c(-c4cc(F)c5nc(C)n(C(C)C)c5c4)n3)nc2)CC1 + CCn1c(-c2cc(N3CCN(C)CC3)cnc2C(C)OC)c2c3cc(ccc31)-c1csc(n1)CC(NC(=O)C1CC1C)C(=O)N1CCCC(N1)C(=O)OCC(C)(C)C2
- IC50 (second compound 0.000949 µM): < 3.16 nM
- IC50 (second compound 0.003 µM): < 3.16 nM
- IC50 (second compound 0.00949 µM): < 3.16 nM
- IC50 (second compound 0.03 µM): < 3.16 nM
- IC50 (second compound 0.0949 µM): < 3.16 nM
- IC50 (second compound 0.3 µM): < 3.16 nM
- viability, T/C (second compound 0.000949 µM, first compound 0.00316 µM): 49.8%
- viability, T/C (second compound 0.000949 µM, first compound 0.01 µM): 45%
- viability, T/C (second compound 0.000949 µM, first compound 0.0316 µM): 35.2%
- viability, T/C (second compound 0.000949 µM, first compound 0.1 µM): 24.1%
- viability, T/C (second compound 0.000949 µM, first compound 0.316 µM): 16.6%
- viability, T/C (second compound 0.000949 µM, first compound 1 µM): 11.2%
- viability, T/C (second compound 0.003 µM, first compound 0.00316 µM): 15.5%
- viability, T/C (second compound 0.003 µM, first compound 0.01 µM): 14.5%
- viability, T/C (second compound 0.003 µM, first compound 0.0316 µM): 15.9%
- viability, T/C (second compound 0.003 µM, first compound 0.1 µM): 10.2%
- viability, T/C (second compound 0.003 µM, first compound 0.316 µM): 6.69%
- viability, T/C (second compound 0.003 µM, first compound 1 µM): 4.94%
- viability, T/C (second compound 0.00949 µM, first compound 0.00316 µM): 6.06%
- viability, T/C (second compound 0.00949 µM, first compound 0.01 µM): 5.48%
- viability, T/C (second compound 0.00949 µM, first compound 0.0316 µM): 4.58%
- viability, T/C (second compound 0.00949 µM, first compound 0.1 µM): 3.84%
- viability, T/C (second compound 0.00949 µM, first compound 0.316 µM): 3.67%
- viability, T/C (second compound 0.00949 µM, first compound 1 µM): 2.8%
- viability, T/C (second compound 0.03 µM, first compound 0.00316 µM): 3.02%
- viability, T/C (second compound 0.03 µM, first compound 0.01 µM): 2.33%
- viability, T/C (second compound 0.03 µM, first compound 0.0316 µM): 2.87%
- viability, T/C (second compound 0.03 µM, first compound 0.1 µM): 2.54%
- viability, T/C (second compound 0.03 µM, first compound 0.316 µM): 2.06%
- viability, T/C (second compound 0.03 µM, first compound 1 µM): 2.27%
- viability, T/C (second compound 0.0949 µM, first compound 0.00316 µM): 1.82%
- viability, T/C (second compound 0.0949 µM, first compound 0.01 µM): 1.82%
- viability, T/C (second compound 0.0949 µM, first compound 0.0316 µM): 1.85%
- viability, T/C (second compound 0.0949 µM, first compound 0.1 µM): 2.2%
- viability, T/C (second compound 0.0949 µM, first compound 0.316 µM): 2.06%
- viability, T/C (second compound 0.0949 µM, first compound 1 µM): 1.76%
- viability, T/C (second compound 0.3 µM, first compound 0.00316 µM): 1.71%
- viability, T/C (second compound 0.3 µM, first compound 0.01 µM): 3.5%
- viability, T/C (second compound 0.3 µM, first compound 0.0316 µM): 2.34%
- viability, T/C (second compound 0.3 µM, first compound 0.1 µM): 1.78%
- viability, T/C (second compound 0.3 µM, first compound 0.316 µM): 2.27%
- viability, T/C (second compound 0.3 µM, first compound 1 µM): 1.13%

SMILES: CCC(CC)c1cc(NC2CCC(N)C2)n2nccc2n1 (centres undefined) + C=CC(=O)N1CCN(c2nc(OCC3CCCN3C)nc3c(F)c(-c4nc(N)cc(C)c4C(F)(F)F)c(Cl)cc23)C(C)C1
- IC50 (second compound 0.00316 µM): 1580 nM
- IC50 (second compound 0.01 µM): 1650 nM
- IC50 (second compound 0.0316 µM): 1700 nM
- IC50 (second compound 0.1 µM): 1720 nM
- IC50 (second compound 0.316 µM): 1720 nM
- IC50 (second compound 1 µM): 1770 nM
- viability, T/C (second compound 0.00316 µM, first compound 0.0316 µM): 98%
- viability, T/C (second compound 0.00316 µM, first compound 0.1 µM): 100%
- viability, T/C (second compound 0.00316 µM, first compound 0.316 µM): 109%
- viability, T/C (second compound 0.00316 µM, first compound 1 µM): 80.4%
- viability, T/C (second compound 0.00316 µM, first compound 3.16 µM): 2.73%
- viability, T/C (second compound 0.00316 µM, first compound 10 µM): 4.78%
- viability, T/C (second compound 0.01 µM, first compound 0.0316 µM): 106%
- viability, T/C (second compound 0.01 µM, first compound 0.1 µM): 100%
- viability, T/C (second compound 0.01 µM, first compound 0.316 µM): 110%
- viability, T/C (second compound 0.01 µM, first compound 1 µM): 86.5%
- viability, T/C (second compound 0.01 µM, first compound 3.16 µM): 2.18%
- viability, T/C (second compound 0.01 µM, first compound 10 µM): 3.83%
- viability, T/C (second compound 0.0316 µM, first compound 0.0316 µM): 107%
- viability, T/C (second compound 0.0316 µM, first compound 0.1 µM): 88.6%
- viability, T/C (second compound 0.0316 µM, first compound 0.316 µM): 124%
- viability, T/C (second compound 0.0316 µM, first compound 1 µM): 89.4%
- viability, T/C (second compound 0.0316 µM, first compound 3.16 µM): 2.68%
- viability, T/C (second compound 0.0316 µM, first compound 10 µM): 4.52%
- viability, T/C (second compound 0.1 µM, first compound 0.0316 µM): 101%
- viability, T/C (second compound 0.1 µM, first compound 0.1 µM): 97.9%
- viability, T/C (second compound 0.1 µM, first compound 0.316 µM): 112%
- viability, T/C (second compound 0.1 µM, first compound 1 µM): 91.3%
- viability, T/C (second compound 0.1 µM, first compound 3.16 µM): 2.71%
- viability, T/C (second compound 0.1 µM, first compound 10 µM): 5.16%
- viability, T/C (second compound 0.316 µM, first compound 0.0316 µM): 101%
- viability, T/C (second compound 0.316 µM, first compound 0.1 µM): 102%
- viability, T/C (second compound 0.316 µM, first compound 0.316 µM): 101%
- viability, T/C (second compound 0.316 µM, first compound 1 µM): 90.3%
- viability, T/C (second compound 0.316 µM, first compound 3.16 µM): 3.2%
- viability, T/C (second compound 0.316 µM, first compound 10 µM): 6.46%
- viability, T/C (second compound 1 µM, first compound 0.0316 µM): 94.4%
- viability, T/C (second compound 1 µM, first compound 0.1 µM): 95.8%
- viability, T/C (second compound 1 µM, first compound 0.316 µM): 96.8%
- viability, T/C (second compound 1 µM, first compound 1 µM): 94.6%
- viability, T/C (second compound 1 µM, first compound 3.16 µM): 3.19%
- viability, T/C (second compound 1 µM, first compound 10 µM): 6.78%
